According to BigSolDB 2.1:

O=C(/C=C/c1ccc(O)c(O)c1)O[C@H](Cc1ccc(O)c(O)c1)C(=O)O
solubility (mole fraction)
Settings | 293.15 K | 298.15 K | 303.15 K | 308.15 K | 313.15 K | 318.15 K
in ethanol | 0.268 | 0.295 | 0.328 | 0.366 | 0.408 | 0.455
in methanol | 0.28 | 0.314 | 0.358 | 0.399 | 0.443 | 0.494
in water | 0.0135 | 0.0151 | 0.0165 | 0.0185 | 0.0209 | 0.0248
